Earlier results in patent US20180125916A1, “System and Method for Natural Hair Loss Prevention Oil” (priority 2016, published 2018).

Test system: male pattern baldness

| Compound | sexual dysfunction side effect (administered orally) | shedding on use (first 2 months of use) | itching as a side effect (in vivo) |
| --- | --- | --- | --- |
| CC(C)(C)NC(=O)[C@H]1CC[C@H]2[C@@H]3CC[C@H]4NC(=O)C=C[C@]4(C)[C@H]3CC[C@]12C [Finasteride] | known to cause permanent sexual dysfunction |  |  |
| Nc1cc(N2CCCCC2)nc(N)[n+]1[O-] [Minoxidil] |  | can cause shedding in the first 2 months of use | high likelihood of a considerable itching |
